# Values of other authors, collected in patent US20230285491A1, “COMPOSITION FOR PREVENTION OF DUMPING SYNDROME IN A POST-BARIATRIC SURGERY SETTING” (METAGENICS, INC., priority 2020, published 2023).
# Target: T1, GLP-1 receptor (Homo sapiens, UniProt P43220)
# T1 construct: GLP-1 receptor antagonism prevented hypoglycemia in all patients and reversed neuroglycopenic symptoms; host or cells: gastric bypass patients (in vivo, endogenous receptor)
# Details: gastric bypass patients
# T1 sequence (P43220 24-463): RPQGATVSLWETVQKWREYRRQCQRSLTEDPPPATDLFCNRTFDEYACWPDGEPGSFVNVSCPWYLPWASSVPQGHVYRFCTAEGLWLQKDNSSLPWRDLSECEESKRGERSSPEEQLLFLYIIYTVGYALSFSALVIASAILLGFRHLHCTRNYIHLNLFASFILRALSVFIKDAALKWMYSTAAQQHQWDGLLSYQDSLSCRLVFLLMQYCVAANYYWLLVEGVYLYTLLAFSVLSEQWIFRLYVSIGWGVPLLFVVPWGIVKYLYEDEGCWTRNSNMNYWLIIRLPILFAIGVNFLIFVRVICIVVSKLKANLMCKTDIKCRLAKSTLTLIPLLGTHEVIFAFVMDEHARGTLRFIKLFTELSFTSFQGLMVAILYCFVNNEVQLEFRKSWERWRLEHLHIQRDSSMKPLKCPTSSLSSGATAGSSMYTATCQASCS
substance,measurement,value
Exendin-(9-39),effect on postprandial hypoglycemic and hyperinsulinemic events,corrected postprandial hypoglycemic and hyperinsulinemic events
